Measured values: ChEMBL document CHEMBL5465560, “Selectivity Literature for EUbOPEN Chemogenomic Library” (2024)

What was measured:
[1] = target: T1, Ephrin type-A receptor 6 (Homo sapiens) (UniProt Q9UF33); assay: Selectivity interaction (KinomeScan (DiscoverX)) EUB0001619a EPHA6; details: at 1 µM
T1 sequence (whole entry): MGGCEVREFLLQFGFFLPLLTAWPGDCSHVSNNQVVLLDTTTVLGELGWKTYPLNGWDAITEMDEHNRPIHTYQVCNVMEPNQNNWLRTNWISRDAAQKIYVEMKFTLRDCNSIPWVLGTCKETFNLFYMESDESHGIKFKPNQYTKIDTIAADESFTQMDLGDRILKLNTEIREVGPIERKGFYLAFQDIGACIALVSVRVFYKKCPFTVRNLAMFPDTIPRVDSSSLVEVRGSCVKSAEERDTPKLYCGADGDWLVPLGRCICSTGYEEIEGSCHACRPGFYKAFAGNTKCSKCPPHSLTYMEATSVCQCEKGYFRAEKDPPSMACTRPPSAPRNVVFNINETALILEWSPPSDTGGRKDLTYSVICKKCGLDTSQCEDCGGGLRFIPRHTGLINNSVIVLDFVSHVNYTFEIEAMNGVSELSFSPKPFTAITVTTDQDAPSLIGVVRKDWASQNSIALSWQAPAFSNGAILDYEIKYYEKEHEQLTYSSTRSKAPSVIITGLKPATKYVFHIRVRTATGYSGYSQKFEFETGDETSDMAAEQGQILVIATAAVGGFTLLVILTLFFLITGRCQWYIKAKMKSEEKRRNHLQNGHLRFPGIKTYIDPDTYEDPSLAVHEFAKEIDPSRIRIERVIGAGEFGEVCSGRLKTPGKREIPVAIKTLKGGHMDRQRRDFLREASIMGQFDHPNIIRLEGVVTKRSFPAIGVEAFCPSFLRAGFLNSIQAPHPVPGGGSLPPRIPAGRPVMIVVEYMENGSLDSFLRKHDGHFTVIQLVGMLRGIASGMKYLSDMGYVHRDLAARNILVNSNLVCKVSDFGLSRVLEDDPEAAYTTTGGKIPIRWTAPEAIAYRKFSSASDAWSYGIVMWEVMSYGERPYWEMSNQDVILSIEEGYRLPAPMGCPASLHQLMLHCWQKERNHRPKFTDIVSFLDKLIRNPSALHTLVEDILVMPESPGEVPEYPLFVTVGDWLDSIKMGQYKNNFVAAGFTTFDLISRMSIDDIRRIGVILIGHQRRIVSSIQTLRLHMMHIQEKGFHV

[2] = target: T2, Ephrin type-A receptor 8 (Homo sapiens) (UniProt P29322); assay: Selectivity interaction (Kinase panel (Z-LYTE Assay)) EUB0001632a EPHA8; details: at 10 µM
T2 sequence (whole entry): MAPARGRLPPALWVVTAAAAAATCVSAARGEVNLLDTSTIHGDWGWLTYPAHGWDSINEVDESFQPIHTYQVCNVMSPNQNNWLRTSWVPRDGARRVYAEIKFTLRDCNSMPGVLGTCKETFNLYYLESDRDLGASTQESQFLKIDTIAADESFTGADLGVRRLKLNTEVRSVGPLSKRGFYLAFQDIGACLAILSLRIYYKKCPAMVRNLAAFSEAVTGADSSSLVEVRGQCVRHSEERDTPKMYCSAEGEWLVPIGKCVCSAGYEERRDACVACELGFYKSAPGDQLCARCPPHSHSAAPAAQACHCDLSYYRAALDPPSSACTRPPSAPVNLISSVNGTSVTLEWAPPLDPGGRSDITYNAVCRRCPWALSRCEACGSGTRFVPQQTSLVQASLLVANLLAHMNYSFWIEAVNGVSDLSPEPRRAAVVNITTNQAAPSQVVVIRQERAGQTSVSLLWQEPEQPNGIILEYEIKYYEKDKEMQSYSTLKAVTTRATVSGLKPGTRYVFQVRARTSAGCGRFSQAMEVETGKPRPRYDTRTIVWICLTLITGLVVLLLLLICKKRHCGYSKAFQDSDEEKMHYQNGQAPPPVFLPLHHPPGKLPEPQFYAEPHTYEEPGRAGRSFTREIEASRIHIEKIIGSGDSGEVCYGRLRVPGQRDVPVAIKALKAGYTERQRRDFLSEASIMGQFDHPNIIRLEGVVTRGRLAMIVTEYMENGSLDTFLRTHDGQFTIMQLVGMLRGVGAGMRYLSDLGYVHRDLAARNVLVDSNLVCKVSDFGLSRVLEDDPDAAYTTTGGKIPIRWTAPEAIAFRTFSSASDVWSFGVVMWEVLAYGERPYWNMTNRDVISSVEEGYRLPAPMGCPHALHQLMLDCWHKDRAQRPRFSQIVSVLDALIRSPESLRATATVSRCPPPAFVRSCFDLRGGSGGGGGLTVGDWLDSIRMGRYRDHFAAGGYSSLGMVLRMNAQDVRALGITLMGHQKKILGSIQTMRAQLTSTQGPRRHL

Compound	% of control [1] [%]	% of control [2] [%]
N#Cc1cccc(-c2c[nH]c3ncnc(N4CCOCC4)c23)c1	100	
Cn1cc(-n2cnc3c(NCc4nc5cc(Cl)c(Cl)cc5[nH]4)nc(N4CCOCC4)nc32)cn1		-0.692
